Results reported in patent US20240209061A1, “FUSION PROTEINS AND USES THEREOF” (Pfizer Inc., priority 2020, published 2024).

Tested on: human PBMCs (T cells)
Experiment: Co-stimulation of primary human T cells with CEFT peptide
Type: cell-based
Protocol: Serial, 3-fold dilutions of CD80-K89D-D90K-T28V-T57V-Fc and CD80-WT-Fc were prepared in complete IMDM medium (10% FBS, 1% Pen/Strep). CEFT peptide (PM-CEFT, JPT Peptide Technologies) was reconstituted in the same medium to the final concentration of 1 μg/ml. Frozen human PBMCs were thawed following a standard protocol and 250,000 were seeded per well of flat bottom 96-wells plates. CEFT peptide and appropriate concentration of the CD80-Fc fusion proteins were added to the cell suspension. Plates were sealed with breathable plate sealers and incubated for 72 hours at 37° C. in a CO2 incubator. Six hours prior to cell harvest, culture supernatants were collected and stored at −20° C. until used for cytokine analysis by MSD (V-Plex pro-inflammatory panel human kit, Meso Scale Discovery). At the same time brefeldin A solution was added to the cells, to enable intracellular accumulation of cytokines for evaluation by flow cytometry. Upon harvest, cells were stained for surface (among others CD25) and intracellular markers (among others Ki-67 and IFNγ) following a standard flow cytometry staining protocol. Data was collected using BD LSR Fortessa and analyzed using FlowJo v10 software.

[1] = CEFT peptide, compared with CD80-WT-Fc

CD80-K89D-D90K-T28V-T57V-Fc: non-cysteine stabilized variant CD80-Fc fusion protein (K89D, D90K, T28V, T57V)
increase in CD25 expression of CD8+ T cells [1]: ~30%
increase in Ki-67 staining (proliferative capacity) of CD8+ T cells [1]: ~30%
IFNγ production relative to CD80-WT-Fc (MSD in cell supernatant): enhanced IFNγ production
% of IFNγ+CD8+ T cells relative to CD80-WT-Fc (flow cytometry): higher % of IFNγ+CD8+ T cells
